HELM strings list units from the 5' end as sugar, base in round brackets, then linkage (d deoxyribose, r ribose, m 2'-O-methyl, p phosphodiester). Strings are as the collection lists them, not checked against the first reports. ss, as = sense and antisense strand; [una] = unlocked nucleic acid; [hna] = hexitol nucleic acid; [s4r] = 4'-thioribose; [fl2r] = 2'-fluoro

The record followed here is the OligoGym collection.
Also: test system not given here.

For this series the following is noted: siRNA.
For the substance “RNA1{m(G)p.r(C)p.m(A)p.m(G)p.m(A)p.m(G)p.m(A)p.m(A)p.r(U)p.r(C)p.r(U)p.m(A)p.r(C)p.r(C)p.r(U)p.r(U)p.r(U)p.r(C)p.r(C)p.r(T)p.r(T)}|RNA2{r(G)p.r(G)p.r(A)p.r(A)p.r(A)p.r(G)p.r(G)p.r(U)p.r(A)p.r(G)p.r(A)p.r(U)p.r(U)p.r(C)p.r(U)p.r(C)p.r(U)p.r(G)p.r(C)p.r(T)p.r(T)}$$$RNA1{StrandType:ss}|RNA2{StrandType:as}$”, the target mRNA knockdown was found to be 65%. The result for “RNA1{r(A)p.r(U)p.r(C)p.r(G)p.r(U)p.r(C)p.r(G)p.r(U)p.r(C)p.r(A)p.r(G)p.r(G)p.r(G)p.m(U)p.r(A)p.r(A)p.r(G)p.r(G)p.r(U)p.r(T)p.r(T)}|RNA2{r(A)p.r(C)p.r(C)p.r(U)p.m(U)p.r(A)p.r(C)p.r(C)p.r(C)p.r(U)p.r(G)p.r(A)p.r(C)p.r(G)p.r(A)p.r(C)p.r(G)p.r(A)p.r(U)p.r(T)p.r(T)}$$$RNA1{StrandType:ss}|RNA2{StrandType:as}$” reads 49%; that for “RNA1{r(U)p.m(U)p.m(G)p.r(G)p.r(G)p.r(G)p.m(A)p.m(A)p.r(G)p.r(C)p.r(G)p.r(G)p.r(C)p.r(C)p.r(G)p.r(G)p.r(C)p.r(G)p.r(G)p.r(T)p.r(T)}|RNA2{r(C)p.r(C)p.r(G)p.r(C)p.r(C)p.r(G)p.r(G)p.r(C)p.r(C)p.r(G)p.r(C)p.r(U)p.r(U)p.r(C)p.r(C)p.r(C)p.m(C)p.r(A)p.r(A)p.r(T)p.r(T)}$$$RNA1{StrandType:ss}|RNA2{StrandType:as}$”, 78%; that for “RNA1{m(A)p.r(A)p.m(A)p.r(C)p.m(C)p.r(U)p.m(C)p.r(A)p.m(G)p.r(C)p.m(C)p.r(C)p.m(U)p.r(A)p.m(A)p.r(C)p.m(G)p.r(G)p.m(U)p.r(T)p.r(T)}|RNA2{r(A)p.m(C)p.m(C)p.r(G)p.r(U)p.r(U)p.r(A)p.r(G)p.r(G)p.r(G)p.m(C)p.r(U)p.r(G)p.r(A)p.r(G)p.r(G)p.r(U)p.r(U)p.r(U)p.r(T)p.r(T)}$$$RNA1{StrandType:ss}|RNA2{StrandType:as}$”, 28%. With “RNA1{r(A)p.r(G)p.r(C)p.r(G)p.r(G)p.r(G)p.r(G)p.m(U)p.r(A)p.m(U)p.r(G)p.r(A)p.r(A)p.r(G)p.m(A)p.r(G)p.r(C)p.r(U)p.r(U)p.r(T)p.r(T)}|RNA2{r(A)p.r(A)p.r(G)p.r(C)p.r(U)p.r(C)p.r(U)p.r(U)p.m(C)p.r(A)p.m(U)p.r(A)p.r(C)p.r(C)p.r(C)p.r(C)p.r(G)p.r(C)p.r(U)p.r(T)p.r(T)}$$$RNA1{StrandType:ss}|RNA2{StrandType:as}$”, the target mRNA knockdown came out at 85%. For “RNA1{r(G)p.r(A)p.r(C)p.r(G)p.[hna](U)p.r(A)p.r(A)p.[hna](A)p.r(C)p.r(G)p.[hna](G)p.r(C)p.r(C)p.[hna](A)p.r(C)p.r(A)p.r(A)p.r(G)p.[hna](U)p.[hna](U)p.d(T)}|RNA2{[fl2r](A)p.m(C)p.[fl2r](U)p.m(U)p.[fl2r](G)p.m(U)p.[fl2r](G)p.m(G)p.[fl2r](C)p.m(C)p.[fl2r](G)p.m(U)p.[fl2r](U)p.m(U)p.[fl2r](A)p.m(C)p.[fl2r](G)p.m(U)p.[fl2r](C)p.m(G)p.[fl2r](C)}$$$RNA1{StrandType:ss}|RNA2{StrandType:as}$”, the target mRNA knockdown was determined as 23.3%. Next, “RNA1{r(A)p.r(A)p.r(C)p.r(C)p.r(C)p.r(A)p.r(A)p.r(A)p.r(G)p.r(G)p.r(G)p.r(G)p.r(A)p.r(G)p.r(U)p.m(U)p.r(G)p.r(C)p.r(U)p.r(T)p.r(T)}|RNA2{r(A)p.r(G)p.r(C)p.r(A)p.r(A)p.r(C)p.r(U)p.r(C)p.r(C)p.r(C)p.r(C)p.r(U)p.r(U)p.m(U)p.r(G)p.r(G)p.r(G)p.r(U)p.r(U)p.r(T)p.r(T)}$$$RNA1{StrandType:ss}|RNA2{StrandType:as}$”: 83%; “RNA1{r(C)p.r(G)p.r(G)p.r(A)p.r(U)p.r(C)p.m(U)p.r(A)p.r(C)p.r(A)p.r(C)p.r(C)p.r(U)p.r(U)p.r(C)p.r(A)p.r(A)p.r(G)p.r(A)p.r(T)p.r(T)}|RNA2{r(U)p.r(C)p.r(U)p.r(U)p.r(G)p.r(A)p.r(A)p.r(G)p.r(G)p.r(U)p.r(G)p.m(U)p.r(A)p.r(G)p.r(A)p.r(U)p.r(C)p.r(C)p.r(G)p.r(T)p.r(T)}$$$RNA1{StrandType:ss}|RNA2{StrandType:as}$”: 69%. “RNA1{r(G)p.r(A)p.r(G)p.r(G)p.r(A)p.r(A)p.r(G)p.r(A)p.m(U)p.r(G)p.r(A)p.r(G)p.r(U)p.m(U)p.r(G)p.m(U)p.r(A)p.r(C)p.r(C)p.r(T)p.r(T)}|RNA2{r(G)p.r(G)p.r(U)p.r(A)p.m(C)p.r(A)p.r(A)p.r(C)p.r(U)p.m(C)p.r(A)p.r(U)p.r(C)p.r(U)p.r(U)p.r(C)p.r(C)p.r(U)p.r(C)p.r(T)p.r(T)}$$$RNA1{StrandType:ss}|RNA2{StrandType:as}$” had a target mRNA knockdown of 76%. The result for “RNA1{m(C)p.r(A)p.r(G)p.m(C)p.r(A)p.r(A)p.r(A)p.m(C)p.m(C)p.r(A)p.m(C)p.r(G)p.r(A)p.m(U)p.m(C)p.r(A)p.r(A)p.m(U)p.r(A)p.r(T)p.r(T)}|RNA2{m(U)p.r(A)p.m(U)p.m(U)p.r(G)p.r(A)p.m(U)p.m(C)p.r(G)p.m(U)p.r(G)p.r(G)p.m(U)p.m(U)p.m(U)p.r(G)p.m(C)p.m(U)p.r(G)p.r(T)p.r(T)}$$$RNA1{StrandType:ss}|RNA2{StrandType:as}$” reads 5%; that for “RNA1{r(A)p.r(A)p.r(C)p.r(C)p.r(C)p.r(A)p.r(C)p.r(C)p.r(A)p.r(C)p.r(A)p.r(G)p.r(C)p.m(U)p.r(A)p.r(G)p.r(A)p.r(A)p.r(C)p.m(U)p.m(U)}|RNA2{r(A)p.r(A)p.r(G)p.r(U)p.r(U)p.r(C)p.r(U)p.r(A)p.r(G)p.r(C)p.r(U)p.r(G)p.r(U)p.r(G)p.r(G)p.r(U)p.r(G)p.r(G)p.r(G)p.r(U)p.r(U)}$$$RNA1{StrandType:ss}|RNA2{StrandType:as}$”, 81%. Consider “RNA1{m(U)p.r(A)p.r(A)p.r(A)p.r(G)p.r(C)p.m(U)p.r(G)p.r(G)p.r(A)p.r(A)p.r(A)p.r(G)p.r(G)p.r(G)p.r(A)p.r(C)p.r(G)p.r(G)p.r(T)p.r(T)}|RNA2{r(C)p.r(C)p.r(G)p.r(U)p.r(C)p.r(C)p.r(C)p.r(U)p.r(U)p.r(U)p.r(C)p.m(C)p.r(A)p.r(G)p.r(C)p.r(U)p.r(U)p.m(U)p.r(A)p.r(T)p.r(T)}$$$RNA1{StrandType:ss}|RNA2{StrandType:as}$”, for which the target mRNA knockdown amounted to 65%.

The substance “RNA1{m(C)p.r(G)p.m(G)p.r(A)p.m(U)p.r(C)p.m(U)p.r(A)p.m(C)p.r(A)p.m(C)p.r(C)p.m(U)p.r(U)p.m(C)p.r(A)p.m(A)p.r(G)p.m(A)p.r(T)p.r(T)}|RNA2{r(U)p.r(C)p.r(U)p.r(U)p.r(G)p.r(A)p.r(A)p.r(G)p.r(G)p.r(U)p.r(G)p.r(U)p.m(A)p.r(G)p.m(A)p.r(U)p.m(C)p.r(C)p.m(G)p.r(T)p.r(T)}$$$RNA1{StrandType:ss}|RNA2{StrandType:as}$” yielded a target mRNA knockdown of 46%. In the case of “RNA1{r(G)p.r(A)p.m(C)p.r(A)p.r(A)p.r(G)p.r(G)p.r(G)p.r(A)p.r(A)p.r(G)p.r(G)p.r(U)p.m(U)p.r(A)p.r(G)p.r(C)p.r(C)p.r(U)p.r(T)p.r(T)}|RNA2{r(A)p.r(G)p.r(G)p.r(C)p.m(U)p.r(A)p.r(A)p.r(C)p.r(C)p.r(U)p.r(U)p.r(C)p.r(C)p.r(C)p.r(U)p.m(U)p.r(G)p.r(U)p.r(C)p.r(T)p.r(T)}$$$RNA1{StrandType:ss}|RNA2{StrandType:as}$”, the target mRNA knockdown was determined as 68%. The result for “RNA1{r(G)p.r(G)p.r(A)p.r(A)p.r(G)p.r(U)p.r(C)p.r(C)p.m(A)p.r(C)p.r(C)p.r(U)p.r(U)p.r(C)p.r(U)p.r(C)p.r(C)p.r(G)p.r(A)p.r(T)p.r(T)}|RNA2{r(U)p.r(C)p.r(G)p.r(G)p.r(A)p.r(G)p.r(A)p.r(A)p.r(G)p.r(G)p.m(U)p.r(G)p.r(G)p.r(A)p.r(C)p.r(U)p.r(U)p.r(C)p.r(C)p.r(T)p.r(T)}$$$RNA1{StrandType:ss}|RNA2{StrandType:as}$” reads 54%; that for “RNA1{[s4r](A)p.[s4r](A)p.[s4r](A)p.[s4r](C)p.r(A)p.r(U)p.r(G)p.r(C)p.r(A)p.r(G)p.r(A)p.r(A)p.r(A)p.r(A)p.r(U)p.[s4r](G)p.[s4r](C)p.[s4r](U)p.[s4r](G)p.r(T)p.r(T)}|RNA2{r(C)p.r(A)p.r(G)p.r(C)p.r(A)p.r(U)p.r(U)p.r(U)p.r(U)p.r(C)p.r(U)p.r(G)p.r(C)p.r(A)p.r(U)p.[s4r](G)p.[s4r](U)p.[s4r](U)p.[s4r](U)p.r(T)p.r(T)}$$$RNA1{StrandType:ss}|RNA2{StrandType:as}$”, 91%. Next, “RNA1{r(G)p.r(U)p.r(A)p.r(U)p.r(G)p.r(A)p.r(C)p.r(C)p.r(G)p.r(A)p.r(C)p.r(U)p.r(A)p.r(C)p.r(G)p.r(C)p.r(G)p.r(U)p.r(A)p.r(T)p.r(T)}|RNA2{r(U)p.r(U)p.r(C)p.r(A)p.r(G)p.r(U)p.r(G)p.r(U)p.r(G)p.r(A)p.r(U)p.r(G)p.r(A)p.r(C)p.r(A)p.r(C)p.r(U)p.[una](U)p.r(G)p.r(T)p.r(T)}$$$RNA1{StrandType:ss}|RNA2{StrandType:as}$”: 91%; “RNA1{r(A)p.r(U)p.m(C)p.r(A)p.m(C)p.r(A)p.r(A)p.r(A)p.r(C)p.r(C)p.r(C)p.r(C)p.m(U)p.r(A)p.r(G)p.r(A)p.r(G)p.r(G)p.r(G)p.r(T)p.r(T)}|RNA2{r(C)p.r(C)p.r(C)p.r(U)p.r(C)p.m(U)p.r(A)p.m(G)p.r(G)p.r(G)p.r(G)p.r(U)p.r(U)p.r(U)p.r(G)p.m(U)p.r(G)p.r(A)p.r(U)p.r(T)p.r(T)}$$$RNA1{StrandType:ss}|RNA2{StrandType:as}$”: 27%; “RNA1{r(C)p.r(C)p.r(C)p.r(U)p.r(C)p.r(C)p.r(C)p.r(C)p.[fl2r](U)p.r(G)p.r(U)p.r(C)p.r(C)p.r(C)p.r(C)p.r(G)p.r(C)p.r(U)p.r(U)p.r(T)p.r(T)}|RNA2{r(A)p.r(A)p.r(G)p.r(C)p.r(G)p.r(G)p.r(G)p.r(G)p.r(A)p.r(C)p.r(A)p.r(G)p.r(G)p.r(G)p.r(G)p.r(A)p.r(G)p.r(G)p.r(G)p.r(T)p.r(T)}$$$RNA1{StrandType:ss}|RNA2{StrandType:as}$”: 73%. “RNA1{[fl2r](A)p.r(A)p.[fl2r](C)p.r(C)p.[fl2r](C)p.r(A)p.[fl2r](C)p.r(C)p.[fl2r](A)p.r(C)p.[fl2r](A)p.r(G)p.[fl2r](C)p.r(U)p.[fl2r](A)p.r(G)p.[fl2r](A)p.r(A)p.[fl2r](C)p.r(U)p.r(U)}|RNA2{[fl2r](G)p.r(U)p.r(U)p.r(C)p.r(U)p.r(A)p.[fl2r](G)p.r(C)p.r(U)p.[fl2r](G)p.r(U)p.[fl2r](G)p.[fl2r](G)p.r(U)p.[fl2r](G)p.[fl2r](G)p.[fl2r](G)p.r(U)p.r(U)p.r(U)p.r(U)}$$$RNA1{StrandType:ss}|RNA2{StrandType:as}$”: the target mRNA knockdown came to 57%.
